Measured values published in US8143408B2, “N-(8-heteroaryltetrahydronaphtalene-2yl) or N-(5-heteroarylchromane-3-yl) carboxamide derivatives for the treatment of pain” (AstraZeneca AB, priority 2007, dated 2012).

Biological target: T1, Nav1.7 voltage-gated sodium channel (Homo sapiens, UniProt Q15858)
T1 construct: Gene(s) encoding the full-length protein of the voltage-gated sodium channel of interest are cloned and expressed; expressed in transfected cells
Experiment: Whole-cell voltage clamp electrophysiology assay
Type: cell-based
Settings: cells stably expressing the voltage-gated sodium channel of interest
From the text: Gene(s) encoding the full-length protein of the voltage-gated sodium channel of interest are cloned and expressed under a suitable promoter in a suitable cell line, as well known in the art. […] Suitable screening assays are as follows.
Electrophysiological studies can be performed using automated patch-clamp electrophysiology platforms, like IonWorks HT, IonWorks Quattro, PatchXpress, QPatch or any other suitable platform. […] Suitable extracellular and intracellular buffer for such experiments are applied according to the instructions given by the manufacturer of the automated patch-clamp platforms. Cells that express the voltage-gated sodium channel protein of interest are exposed to drugs through the pipetting system integrated in the platforms. A suitable voltage stimulus protocol is used to activate the voltage-gated sodium channel proteins of interest through depolarisation from a defined holding potential.
Electrophysiological studies can also be performed using the whole cell configuration of the standard patch clamp technique. In this assay, cells that express the voltage-gated sodium channel protein of interest are exposed to the drugs by conventional microperfusion systems and a suitable voltage stimulus protocol is used to activate the voltage-gated sodium channels.

T1 sequence (Q15858 whole entry): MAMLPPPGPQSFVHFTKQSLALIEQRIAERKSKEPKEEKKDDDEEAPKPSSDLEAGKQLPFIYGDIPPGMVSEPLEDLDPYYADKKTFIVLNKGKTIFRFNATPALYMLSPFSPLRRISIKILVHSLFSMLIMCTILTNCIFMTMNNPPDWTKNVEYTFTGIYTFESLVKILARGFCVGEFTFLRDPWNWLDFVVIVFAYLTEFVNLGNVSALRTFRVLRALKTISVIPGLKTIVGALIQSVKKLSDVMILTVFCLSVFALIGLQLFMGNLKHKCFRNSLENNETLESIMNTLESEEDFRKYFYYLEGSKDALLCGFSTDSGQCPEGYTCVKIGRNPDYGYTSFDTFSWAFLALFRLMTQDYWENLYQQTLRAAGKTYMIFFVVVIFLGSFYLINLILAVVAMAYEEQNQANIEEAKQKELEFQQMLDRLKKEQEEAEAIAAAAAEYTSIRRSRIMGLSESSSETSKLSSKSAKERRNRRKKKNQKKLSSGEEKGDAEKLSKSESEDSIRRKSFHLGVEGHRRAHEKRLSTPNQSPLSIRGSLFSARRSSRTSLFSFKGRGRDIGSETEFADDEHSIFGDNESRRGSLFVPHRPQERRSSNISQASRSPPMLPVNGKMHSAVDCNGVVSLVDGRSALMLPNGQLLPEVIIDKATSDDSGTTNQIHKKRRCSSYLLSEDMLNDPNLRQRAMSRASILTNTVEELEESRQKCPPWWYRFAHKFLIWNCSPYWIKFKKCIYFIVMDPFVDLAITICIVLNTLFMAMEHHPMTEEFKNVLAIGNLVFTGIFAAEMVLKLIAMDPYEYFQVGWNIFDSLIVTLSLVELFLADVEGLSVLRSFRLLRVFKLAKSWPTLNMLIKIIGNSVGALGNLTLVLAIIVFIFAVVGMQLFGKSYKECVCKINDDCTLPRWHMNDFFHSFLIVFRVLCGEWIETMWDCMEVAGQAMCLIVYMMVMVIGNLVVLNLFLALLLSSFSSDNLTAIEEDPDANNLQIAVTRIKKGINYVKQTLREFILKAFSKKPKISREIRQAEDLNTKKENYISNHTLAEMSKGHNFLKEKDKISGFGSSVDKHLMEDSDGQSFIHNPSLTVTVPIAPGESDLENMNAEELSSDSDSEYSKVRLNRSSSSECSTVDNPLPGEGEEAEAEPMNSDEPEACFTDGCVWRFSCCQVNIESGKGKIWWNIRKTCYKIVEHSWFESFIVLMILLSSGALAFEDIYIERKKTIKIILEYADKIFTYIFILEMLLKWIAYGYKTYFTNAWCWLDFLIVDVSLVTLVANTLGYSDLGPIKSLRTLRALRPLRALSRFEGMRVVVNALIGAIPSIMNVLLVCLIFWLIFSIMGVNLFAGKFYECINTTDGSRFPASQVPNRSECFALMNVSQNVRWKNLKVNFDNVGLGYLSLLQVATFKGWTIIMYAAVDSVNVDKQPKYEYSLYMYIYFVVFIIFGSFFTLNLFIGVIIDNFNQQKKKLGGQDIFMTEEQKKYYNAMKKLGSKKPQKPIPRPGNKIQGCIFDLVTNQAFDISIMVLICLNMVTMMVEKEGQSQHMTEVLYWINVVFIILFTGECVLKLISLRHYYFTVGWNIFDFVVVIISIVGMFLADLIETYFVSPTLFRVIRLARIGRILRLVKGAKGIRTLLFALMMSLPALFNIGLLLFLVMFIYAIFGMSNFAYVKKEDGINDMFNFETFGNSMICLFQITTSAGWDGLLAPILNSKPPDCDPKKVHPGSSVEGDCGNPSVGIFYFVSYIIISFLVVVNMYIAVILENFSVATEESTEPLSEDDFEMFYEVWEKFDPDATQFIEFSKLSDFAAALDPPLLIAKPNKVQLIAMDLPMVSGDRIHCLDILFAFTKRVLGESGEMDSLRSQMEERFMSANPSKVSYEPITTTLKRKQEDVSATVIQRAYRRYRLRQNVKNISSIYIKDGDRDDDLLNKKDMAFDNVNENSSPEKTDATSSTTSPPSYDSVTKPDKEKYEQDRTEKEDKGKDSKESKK

Row | IC50 [µM] | SMILES
1 | 0.126 | COc1ccc(-c2cccc3c2C[C@H](NC(=O)c2ccc(OCCC(F)(F)F)nc2)CO3)cn1 [Example 77, N-[(3S)-5-(6-methoxypyridin-3-yl)-3,4-dihydro-2H-chromen-3-yl]-6-(3,3,3-trifluoropropoxy)nicotinamide]
2 | 3.16 | CC(C)Oc1ccc(C(=O)N[C@@H]2CCc3cccc(-c4ccnnc4)c3C2)cn1 [Example 78, 6-isopropoxy-N-[(2R)-8-pyridazin-4-yl-1,2,3,4-tetrahydronaphthalen-2-yl]nicotinamide]
3 | 1.26 | COc1cnc(C(=O)N[C@@H]2COc3cccc(-c4cnc(OC)c(F)c4)c3C2)cn1 [Example 79, N-[(3S)-5-(5-fluoro-6-methoxypyridin-3-yl)-3,4-dihydro-2H-chromen-3-yl]-5-methoxypyrazine-2-carboxamide]
4 | 2.51 | O=C(N[C@@H]1COc2cccc(-c3ccnnc3)c2C1)c1ccc(OCC(F)(F)F)nc1 [Example 80, N-[(3S)-5-pyridazin-4-yl-3,4-dihydro-2H-chromen-3-yl]-6-(2,2,2-trifluoroethoxy)nicotinamide]
5 | 0.398 | O=C(N[C@@H]1COc2cccc(-c3ccnnc3)c2C1)c1ccc(OCCC(F)(F)F)nc1 [Example 81, N-[(3S)-5-pyridazin-4-yl-3,4-dihydro-2H-chromen-3-yl]-6-(3,3,3-trifluoropropoxy)nicotinamide]
6 | 2.51 | COc1ncc(-c2cccc3c2C[C@H](NC(=O)c2ccc(OC(C)C)nc2)CC3)cn1 [Example 82, 6-isopropoxy-N-[(2R)-8-(2-methoxypyrimidin-5-yl)-1,2,3,4-tetrahydronaphthalen-2-yl]nicotinamide]
7 | 5.01 | COc1cnc(C(=O)N[C@@H]2COc3cccc(-c4cnc(OC)nc4)c3C2)cn1 [Example 83, 5-methoxy-N-[(3S)-5-(2-methoxypyrimidin-5-yl)-3,4-dihydro-2H-chromen-3-yl]pyrazine-2-carboxamide]
8 | 0.398 | COc1ncc(-c2cccc3c2C[C@H](NC(=O)c2ccc(OCCC(F)(F)F)nc2)CC3)cn1 [Example 84, N-[(2R)-8-(2-methoxypyrimidin-5-yl)-1,2,3,4-tetrahydronaphthalen-2-yl]-6-(3,3,3-trifluoropropoxy)nicotinamide]
9 | 0.501 | COc1ncc(-c2cccc3c2C[C@H](NC(=O)c2ccc(OCC(F)(F)F)nc2)CC3)cn1 [Example 85, N-[(2R)-8-(2-methoxypyrimidin-5-yl)-1,2,3,4-tetrahydronaphthalen-2-yl]-6-(2,2,2-trifluoroethoxy)nicotinamide]
10 | 0.2 | O=C(N[C@@H]1CCc2cccc(-c3cccnc3F)c2C1)c1ccc(OCC(F)(F)F)nc1 [Example 87, N-[(2R)-8-(2-fluoropyridin-3-yl)-1,2,3,4-tetrahydronaphthalen-2-yl]-6-(2,2,2-trifluoroethoxy)nicotinamide]
11 | 0.398 | COc1ncc(-c2cccc3c2C[C@H](NC(=O)c2ccc(OCC(F)(F)F)nc2)CO3)cc1F [Example 88, N-[(3S)-5-(5-fluoro-6-methoxypyridin-3-yl)-3,4-dihydro-2H-chromen-3-yl]-6-(2,2,2-trifluoroethoxy)nicotinamide]
12 | 2 | COc1ncc(-c2cccc3c2C[C@H](NC(=O)c2cnc(OCC(F)(F)F)nc2C)CO3)cn1 [Example 89, N-[(3S)-5-(2-methoxypyrimidin-5-yl)-3,4-dihydro-2H-chromen-3-yl]-4-methyl-2-(2,2,2-trifluoroethoxy)pyrimidine-5-carboxamide]
13 | 1.58 | COc1ncc(-c2cccc3c2C[C@H](NC(=O)c2cnc(OCC(F)(F)F)nc2C)CC3)cn1 [Example 90, N-[(2R)-8-(2-methoxypyrimidin-5-yl)-1,2,3,4-tetrahydronaphthalen-2-yl]-4-methyl-2-(2,2,2-trifluoroethoxy)pyrimidine-5-carboxamide]
14 | 0.0794 | O=C(N[C@@H]1COc2cccc(-c3ccc4nccn4c3)c2C1)c1ccc(OCC(F)(F)F)nc1 [Example 91, N-[(3S)-5-imidazo[1,2-a]pyridin-6-yl-3,4-dihydro-2H-chromen-3-yl]-6-(2,2,2-trifluoroethoxy)nicotinamide]
15 | 5.01 | COc1ncc(-c2cccc3c2C[C@H](NC(=O)c2cnc(OC(C)C)nc2C)CO3)cn1 [Example 92, 2-isopropoxy-N-[(3S)-5-(2-methoxypyrimidin-5-yl)-3,4-dihydro-2H-chromen-3-yl]-4-methylpyrimidine-5-carboxamide]
16 | 0.631 | CCOc1ncc(-c2cccc3c2C[C@H](NC(=O)c2ccc(OCC(F)(F)F)nc2)CO3)cn1 [Example 93, N-[(3S)-5-(2-ethoxypyrimidin-5-yl)-3,4-dihydro-2H-chromen-3-yl]-6-(2,2,2-trifluoroethoxy)nicotinamide]
17 | 0.794 | COc1ncc(-c2cccc3c2C[C@H](NC(=O)c2ccc(OC4CCC4)nc2)CO3)cc1F [Example 94, 6-(cyclobutyloxy)-N-[(3S)-5-(5-fluoro-6-methoxypyridin-3-yl)-3,4-dihydro-2H-chromen-3-yl]nicotinamide]

Row | IC50 [µM] | SMILES
18 | 0.158 | CCc1ncc(-c2cccc3c2C[C@H](NC(=O)c2ccc(OCC(F)(F)F)nc2)CO3)cn1 [Example 95, N-[(3S)-5-(2-ethylpyrimidin-5-yl)-3,4-dihydro-2H-chromen-3-yl]-6-(2,2,2-trifluoroethoxy)nicotinamide]
19 | 0.0501 | O=C(N[C@@H]1COc2cccc(-c3cnc(C4CC4)nc3)c2C1)c1ccc(OCCCF)nc1 [Example 96, N-[(3S)-5-(2-cyclopropylpyrimidin-5-yl)-3,4-dihydro-2H-chromen-3-yl]-6-(3-fluoropropoxy)nicotinamide]
20 | 0.398 | COc1ncc(-c2cccc3c2C[C@H](NC(=O)c2ccc(OCCC(F)(F)F)nc2)CO3)cc1F [Example 97, N-[(3S)-5-(5-fluoro-6-methoxypyridin-3-yl)-3,4-dihydro-2H-chromen-3-yl]-6-(3,3,3-trifluoropropoxy)nicotinamide]
21 | 6.31 | COc1cc(-c2cccc3c2C[C@H](NC(=O)c2ccc(OCC(F)(F)F)nc2)CO3)c(OC)nn1 [Example 98, N-[(3S)-5-(3,6-dimethoxypyridazin-4-yl)-3,4-dihydro-2H-chromen-3-yl]-6-(2,2,2-trifluoroethoxy)nicotinamide]
22 | 0.398 | Cc1cncc(-c2cccc3c2C[C@H](NC(=O)c2ccc(OCC(F)(F)F)nc2)CO3)n1 [Example 99, N-[(3S)-5-(6-methylpyrazin-2-yl)-3,4-dihydro-2H-chromen-3-yl]-6-(2,2,2-trifluoroethoxy)nicotinamide]
23 | 0.398 | COc1ncc(-c2cccc3c2C[C@H](NC(=O)c2ccc(OCCCF)nc2)CO3)cn1 [Example 100, 6-(3-fluoropropoxy)-N-[(3S)-5-(2-methoxypyrimidin-5-yl)-3,4-dihydro-2H-chromen-3-yl]nicotinamide]
24 | 0.158 | Cc1ncc(-c2cccc3c2C[C@H](NC(=O)c2ccc(OCCCF)nc2)CO3)cn1 [Example 101, 6-(3-fluoropropoxy)-N-[(3S)-5-(2-methylpyrimidin-5-yl)-3,4-dihydro-2H-chromen-3-yl]nicotinamide]
25 | 0.1 | Cc1ncc(-c2cccc3c2C[C@H](NC(=O)c2ccc(OCC(F)(F)F)nc2)CO3)cn1 [Example 102, N-[(3S)-5-(2-methylpyrimidin-5-yl)-3,4-dihydro-2H-chromen-3-yl]-6-(2,2,2-trifluoroethoxy)nicotinamide]
26 | 2.51 | Cc1ncc(-c2cccc3c2C[C@H](NC(=O)c2ccnc(OC(C)C)c2)CO3)cn1 [Example 104, 2-isopropoxy-N-[(3S)-5-(2-methylpyrimidin-5-yl)-3,4-dihydro-2H-chromen-3-yl]isonicotinamide]
27 | 0.0631 | Cc1ncc(-c2cccc3c2C[C@H](NC(=O)c2ccc(OC4CCC4)nc2)CO3)cn1 [Example 105, 6-(cyclobutyloxy)-N-[(3S)-5-(2-methylpyrimidin-5-yl)-3,4-dihydro-2H-chromen-3-yl]nicotinamide]
28 | 0.251 | COc1ncc(-c2cccc3c2C[C@H](NC(=O)c2ccc(OC4CCC4)nc2)CO3)cn1 [Example 106, 6-(cyclobutyloxy)-N-[(3S)-5-(2-methoxypyrimidin-5-yl)-3,4-dihydro-2H-chromen-3-yl]nicotinamide]
29 | 3.98 | COc1ncc(-c2cccc3c2C[C@H](NC(=O)c2ccnc(OC(C)C)c2)CO3)cn1 [Example 107, 2-isopropoxy-N-[(3S)-5-(2-methoxypyrimidin-5-yl)-3,4-dihydro-2H-chromen-3-yl]isonicotinamide]
30 | 3.98 | Cc1cnc(-c2cccc3c2C[C@H](NC(=O)c2ccc(OCCCF)nc2)CO3)c(C)n1 [Example 108, N-[(3S)-5-(3,5-dimethylpyrazin-2-yl)-3,4-dihydro-2H-chromen-3-yl]-6-(3-fluoropropoxy)nicotinamide]
31 | 0.126 | O=C(N[C@@H]1COc2cccc(-c3cnc(C4CC4)nc3)c2C1)c1ccc(OCC(F)(F)F)nc1 [Example 109, N-[(3S)-5-(2-cyclopropylpyrimidin-5-yl)-3,4-dihydro-2H-chromen-3-yl]-6-(2,2,2-trifluoroethoxy)nicotinamide]
32 | 2 | CCCN(CCC)C(=O)c1ccc(C(=O)N[C@@H]2COc3cccc(-c4cnc(OC)nc4)c3C2)cn1 [Example 110, N^5-[(3S)-5-(2-methoxypyrimidin-5-yl)-3,4-dihydro-2H-chromen-3-yl]-N^2,N^2-dipropylpyridine-2,5-dicarboxamide]
33 | 0.251 | COc1ncc(-c2cccc3c2C[C@H](NC(=O)c2ccc(C(=O)NCCC(C)C)nc2)CO3)cn1 [Example 111, N^5-[(3S)-5-(2-methoxypyrimidin-5-yl)-3,4-dihydro-2H-chromen-3-yl]-N^2-(3-methylbutyl)pyridine-2,5-dicarboxamide]
